Assay results: patent EP1712550A2, “Substituted triazole diamine derivatives as kinase inhibitors” (priority 2000, dated 2002)
Like-named read-outs stand apart in the source and are kept apart here.

Key:
[1] = tested on: HeLa cervical adenocarcinoma; assay: Inhibition of Cell Proliferation, 14C-thymidine incorporation, HeLa; type: cell-based; conditions: Homo sapiens; Cell Line HeLa
Protocol: (§1) The ability of a test compound to inhibit the proliferation of cell growth was determined by measuring incorporation of ^14C-labelled thymidine into newly synthesized DNA within the cells. This method was used on cell lines derived from carcinomas originating from several tissues such as HeLa cervical adenocarcinoma (American Type Culture Collection (ATCC), Virginia, Cat. #CCL-2), A375 malignant melanoma (ATCC CRL-1619), SK-OV-3 ovarian adenocarcinoma (ATCC HTB-77) HCT-116 colon carcinoma (CCL-247), PC-3 prostate adenocarcinoma (ATCC CRL-1435), and MDA-MB-231 (Xenogen Corp.) In this way the effect of a compound on cell growth of cells with many different phenotypes can be determined. Cells were trypsinized and counted and 3000-8000 cells were added to each well of a 96-well CytoStar tissue culture treated scintillating microplate (Amersham #RPNQ0160) in complete medium in a volume of 100 µl. Cells were incubated for 24 hours in complete medium at 37°C in an atmosphere containing 5% CO2. Next, 1 µl of test compound in 100% DMSO was added to the wells of the plate. DMSO only was added to control wells. Cells were incubated for 24 more hours in complete medium at 37°C in an atmosphere containing 5% CO2. Methyl^14C-thymidine 56 mCi/mmol (NEN #NEC568 or Amersham #CFA532) was diluted in complete medium and 0.2 uCi/well was added to each well of the CytoStar plate in a volume of 20 ul. The plate was incubated for 24 hours at 37°C plus 5% CO2 in drug plus ^14C-thymidine. The contents of the plate were discarded into a ^14C radioactive waste container by inverting the plate and the plate was washed twice with 200 µl PBS. 200 µl of PBS is added to each well. The top of the plate was sealed with a transparent plate sealer and a white plate backing sealer (Packard #6005199) was applied to the bottom of the plate. The degree of methyl ^14C-thymidine incorporation was quantified on a Packard Top Count.

[2] = tested on: PC-3 prostate adenocarcinoma; assay: Inhibition of Cell Proliferation, 14C-thymidine incorporation, PC-3; type: cell-based; conditions: Cell Line PC-3
Protocol: as §1

A375 malignant melanoma = assay: Inhibition of Cell Proliferation, 14C-thymidine incorporation, A375; type: cell-based; conditions: Homo sapiens, A-375; Cell Line A375
Protocol: as §1

HCT-116 colon carcinoma = assay: Inhibition of Cell Proliferation, 14C-thymidine incorporation, HCT-116; type: cell-based; conditions: Homo sapiens; Cell Line HCT-116
Protocol: as §1

MDA-MB-231 = assay: Inhibition of Cell Proliferation, 14C-thymidine incorporation, MDA-MB-231; type: cell-based; conditions: Homo sapiens; Cell Line MDA-MB-231
Protocol: The ability of a test compound to inhibit the proliferation of cell growth was determined by measuring incorporation of ^14C-labelled thymidine into newly synthesized DNA within the cells. […] Cells were trypsinized and counted and 3000-8000 cells were added to each well of a 96-well CytoStar tissue culture treated scintillating microplate (Amersham #RPNQ0160) in complete medium in a volume of 100 µl. Cells were incubated for 24 hours in complete medium at 37°C in an atmosphere containing 5% CO2. Next, 1 µl of test compound in 100% DMSO was added to the wells of the plate. DMSO only was added to control wells. Cells were incubated for 24 more hours in complete medium at 37°C in an atmosphere containing 5% CO2. […] The plate was incubated for 24 hours at 37°C plus 5% CO2 in drug plus ^14C-thymidine. The contents of the plate were discarded into a ^14C radioactive waste container by inverting the plate and the plate was washed twice with 200 µl PBS. 200 µl of PBS is added to each well. […] The degree of methyl ^14C-thymidine incorporation was quantified on a Packard Top Count.

[3] = target: T1, EGFR (epidermal growth factor receptor) (Homo sapiens, UniProt P00533); assay: Kinase Selectivity Assay EGF-R; type: biochemical
T1 construct: is purified from human A431 cell membranes (Sigma, St. Louis, MO, Cat.# E3641); purchased Sigma, St. Louis, MO E3641; host or cells: human A431 cell membranes (endogenous protein)

[4] = target: T2, HER2 (human epidermal growth factor receptor-2) (Homo sapiens, UniProt P04626); assay: Kinase Selectivity Assay HER2; type: biochemical; conditions: read-out: Kinase Assay (IC50 uM) HER2 Kinase
T2 construct: begins at amino acid 676 followed by the remainder of the HER2 cytoplasmic domain; polyhistidine (N)

[5] = target: T3, VEGF-R (vascular endothelial growth factor receptor-2) (Rattus norvegicus, UniProt O08775); assay: VEGF-R Screening Assay; type: biochemical; conditions: read-out: Kinase Assay (IC50 uM) VEGF-R
T3 construct: 6xHis (polyhistidine) (N)
Protocol: (§2) 70 µL of the kinase reaction mixture was dispensed into the well of a streptavidin coated FlashPlate™ (Cat. # SMP103, NEN, Boston, MA). Then 1 µL of test compound stock in 100% DMSO was added to the wells resulting in a final concentration of 1% DMSO in the reaction with a 100 µL final reaction volume. Next, soluble rat tyrosine kinase containing an N-terminal 6XHIS tag was diluted in 50 mM Tris-HCl pH=8.0, 0.1% BSA at a concentration of 5 ng per µL and 30 µL (150 ng enzyme per test well) was added to each well to initiate the reaction. The reaction was incubated for one hour at 30°C. At the end of the 1-hour incubation, the reaction was terminated by aspirating the reaction mixture from the plate and washing the wells twice with PBS containing 100 mM EDTA. The PLC1 biotinylated peptide substrate became immobilized on the Flashplate™ and the incorporation of ^33P-γ-ATP was measured by reading the plate on a scintillation counter. Inhibition of the enzymatic activity of the VEGF-R was measured by observing a reduced amount of ^33P-γ-ATP incorporated into the immobilized peptide. […]

PKC (protein kinase-C) = assay: Kinase Selectivity Assay PKC; type: biochemical, human
CDK1:Cyclin-B = target: T4, CDK1:Cyclin-B (Homo sapiens, UniProt P06493); assay: CDK1 Screening Assay; type: biochemical; conditions: read-out: Kinase Assay (IC50 uM) CDK1
T4 construct: purchased New England Biolabs, Beverly, MA 6020; host or cells: insect cells
Protocol: as §2, with “100 µl” for “100 µL”, “Next, CDK1:Cyclin-B protein” for “Next, soluble rat tyrosine kinase containing an N-terminal 6XHIS tag”, “of 1” for “of 5”, “30 µl (30ng” for “30 µL (150 ng”, “The histone-H1” for “The PLC1”, “of CDK1” for “of the VEGF-R”

Insulin Receptor Kinase = Insulin Receptor Kinase (Homo sapiens, UniProt P06213); assay: Kinase Selectivity Assay Insulin Receptor Kinase; type: biochemical; conditions: read-out: Kinase Assay (IC50 uM) Insulin R Kinase
[6] = target: T5, CDK2 in complex with cyclin A (Homo sapiens, UniProt P24941); assay: Kinase Selectivity Assay CDK2; type: biochemical
T5 construct: purchased Upstate Biotech, Lake Placid, NY

[7] = read-out: Kinase Assay (IC50 uM) EGF-R

T2 sequence (P04626 676-1255 limits assumed): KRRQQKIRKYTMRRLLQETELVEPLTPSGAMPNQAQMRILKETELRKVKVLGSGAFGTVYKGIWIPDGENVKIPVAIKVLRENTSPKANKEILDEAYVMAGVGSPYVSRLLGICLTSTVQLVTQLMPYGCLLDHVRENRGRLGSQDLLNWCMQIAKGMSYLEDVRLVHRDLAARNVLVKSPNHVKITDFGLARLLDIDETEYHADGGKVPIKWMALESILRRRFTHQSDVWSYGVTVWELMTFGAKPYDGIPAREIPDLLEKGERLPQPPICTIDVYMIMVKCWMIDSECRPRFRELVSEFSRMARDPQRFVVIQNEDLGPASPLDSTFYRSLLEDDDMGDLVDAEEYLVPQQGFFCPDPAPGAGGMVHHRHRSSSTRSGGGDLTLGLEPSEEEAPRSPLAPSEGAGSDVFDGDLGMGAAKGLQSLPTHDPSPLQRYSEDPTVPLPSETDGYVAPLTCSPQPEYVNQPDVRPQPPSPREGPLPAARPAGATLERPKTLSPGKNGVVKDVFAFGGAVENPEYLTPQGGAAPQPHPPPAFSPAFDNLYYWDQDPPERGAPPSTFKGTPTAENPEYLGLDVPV
T1 sequence (P00533 25-1210): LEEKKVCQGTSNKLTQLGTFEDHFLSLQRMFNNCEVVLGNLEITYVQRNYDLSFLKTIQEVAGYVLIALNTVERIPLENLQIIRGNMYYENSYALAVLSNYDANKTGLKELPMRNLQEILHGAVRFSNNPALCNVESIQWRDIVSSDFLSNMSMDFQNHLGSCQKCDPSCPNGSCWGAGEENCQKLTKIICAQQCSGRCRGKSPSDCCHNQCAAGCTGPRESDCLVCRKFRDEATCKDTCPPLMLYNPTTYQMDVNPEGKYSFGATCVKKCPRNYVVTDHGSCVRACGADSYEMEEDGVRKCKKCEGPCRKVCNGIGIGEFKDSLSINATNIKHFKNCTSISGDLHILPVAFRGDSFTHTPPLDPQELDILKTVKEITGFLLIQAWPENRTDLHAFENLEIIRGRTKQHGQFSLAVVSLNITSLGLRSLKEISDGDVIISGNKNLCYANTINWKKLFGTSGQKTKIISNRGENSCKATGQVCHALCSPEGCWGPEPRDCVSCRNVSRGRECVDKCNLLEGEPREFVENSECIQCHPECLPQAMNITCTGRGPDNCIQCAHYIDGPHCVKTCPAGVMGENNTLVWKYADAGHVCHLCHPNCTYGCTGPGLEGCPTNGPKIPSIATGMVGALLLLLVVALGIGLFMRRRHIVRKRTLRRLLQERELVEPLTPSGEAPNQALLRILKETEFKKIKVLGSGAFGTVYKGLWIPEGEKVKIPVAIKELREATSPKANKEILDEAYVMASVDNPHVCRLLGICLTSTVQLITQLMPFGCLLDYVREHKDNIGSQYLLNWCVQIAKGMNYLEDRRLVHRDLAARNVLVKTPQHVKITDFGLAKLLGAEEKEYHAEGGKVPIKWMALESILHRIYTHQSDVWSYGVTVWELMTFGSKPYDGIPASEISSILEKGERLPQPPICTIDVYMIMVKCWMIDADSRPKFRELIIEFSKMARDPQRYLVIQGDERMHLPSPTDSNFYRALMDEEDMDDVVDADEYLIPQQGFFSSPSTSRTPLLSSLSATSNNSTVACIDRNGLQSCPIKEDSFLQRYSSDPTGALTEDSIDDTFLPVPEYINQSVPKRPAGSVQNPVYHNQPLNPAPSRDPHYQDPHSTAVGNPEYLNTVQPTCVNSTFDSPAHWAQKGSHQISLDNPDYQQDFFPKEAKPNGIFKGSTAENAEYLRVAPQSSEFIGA
T3 sequence (O08775 786-1343): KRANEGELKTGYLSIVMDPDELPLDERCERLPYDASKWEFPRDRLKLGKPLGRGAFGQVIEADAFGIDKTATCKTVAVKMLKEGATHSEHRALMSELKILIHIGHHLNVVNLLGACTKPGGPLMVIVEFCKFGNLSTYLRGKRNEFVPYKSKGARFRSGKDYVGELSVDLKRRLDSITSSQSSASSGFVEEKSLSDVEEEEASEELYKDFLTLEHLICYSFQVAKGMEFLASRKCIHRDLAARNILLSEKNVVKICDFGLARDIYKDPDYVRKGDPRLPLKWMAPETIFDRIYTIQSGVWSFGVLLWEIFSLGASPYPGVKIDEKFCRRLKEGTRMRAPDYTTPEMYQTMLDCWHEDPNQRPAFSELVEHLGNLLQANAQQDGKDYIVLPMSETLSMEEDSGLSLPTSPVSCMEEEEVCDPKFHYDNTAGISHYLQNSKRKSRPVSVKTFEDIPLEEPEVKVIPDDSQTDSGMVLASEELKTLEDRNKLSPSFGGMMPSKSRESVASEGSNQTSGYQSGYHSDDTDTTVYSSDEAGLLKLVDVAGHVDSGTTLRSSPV
T4 sequence (P06493 whole entry): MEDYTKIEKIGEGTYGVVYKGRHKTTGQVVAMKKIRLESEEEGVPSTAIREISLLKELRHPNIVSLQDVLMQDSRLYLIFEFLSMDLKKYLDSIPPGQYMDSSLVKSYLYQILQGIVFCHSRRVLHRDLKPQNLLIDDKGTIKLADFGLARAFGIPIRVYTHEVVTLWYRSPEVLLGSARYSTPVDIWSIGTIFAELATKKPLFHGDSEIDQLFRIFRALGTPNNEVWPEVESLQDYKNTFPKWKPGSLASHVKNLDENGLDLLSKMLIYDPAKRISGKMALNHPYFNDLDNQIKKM
T4 sequence (P14635 whole entry partner): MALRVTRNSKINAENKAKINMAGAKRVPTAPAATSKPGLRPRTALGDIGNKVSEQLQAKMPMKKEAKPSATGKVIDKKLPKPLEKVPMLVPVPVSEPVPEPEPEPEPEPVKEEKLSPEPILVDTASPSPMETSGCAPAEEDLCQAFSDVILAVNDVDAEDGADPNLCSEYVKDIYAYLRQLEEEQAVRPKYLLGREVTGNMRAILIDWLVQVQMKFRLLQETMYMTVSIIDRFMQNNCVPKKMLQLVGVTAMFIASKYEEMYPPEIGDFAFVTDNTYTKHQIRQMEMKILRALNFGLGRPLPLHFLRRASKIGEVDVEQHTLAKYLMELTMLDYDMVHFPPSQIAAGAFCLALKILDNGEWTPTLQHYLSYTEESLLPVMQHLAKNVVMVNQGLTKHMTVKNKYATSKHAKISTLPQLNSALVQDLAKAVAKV
Insulin Receptor Kinase, sequence (P06213 980-1352): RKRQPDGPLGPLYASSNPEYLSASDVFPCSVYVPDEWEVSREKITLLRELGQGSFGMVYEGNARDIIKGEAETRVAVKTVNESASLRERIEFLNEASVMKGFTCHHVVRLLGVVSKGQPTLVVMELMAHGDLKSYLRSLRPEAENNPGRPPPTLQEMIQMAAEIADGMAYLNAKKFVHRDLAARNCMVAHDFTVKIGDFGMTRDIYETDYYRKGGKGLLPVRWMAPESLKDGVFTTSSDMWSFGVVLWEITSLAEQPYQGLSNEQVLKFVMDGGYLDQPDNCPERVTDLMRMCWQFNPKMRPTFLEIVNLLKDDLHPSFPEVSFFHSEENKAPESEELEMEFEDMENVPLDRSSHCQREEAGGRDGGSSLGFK

SMILES | IC50 [1] | IC50 [2] | IC50 (A375 malignant melanoma) | IC50 (HCT-116 colon carcinoma) | IC50 [4] | IC50 [3, 7] | also measured
Cc1ccsc1C(=O)n1nc(Nc2ccc(S(N)(=O)=O)cc2)nc1N [Cpd 15, 4-[[5-amino-1-[(3-methyl-2-thienyl)carbonyl]-1H-1,2,4-triazol-3-yl]amino]-benzenesulfonamide] | 91 nM | 107 nM | 247 nM | 127 nM |  |  | 
Cc1cc(C)c(C(=O)n2nc(Nc3ccc(S(N)(=O)=O)cc3)nc2N)s1 [Cpd 33, 4-[[5-amino-1-[(3,5-dimethyl-2-thienyl)carbonyl]-1H-1,2,4-triazol-3-yl]amino]-benzenesulfonamide] | 72 nM | 37 nM |  | 27 nM |  |  | IC50 (MDA-MB-231): 171 nM; IC50 ([3]; Kinase Selectivity, Table 2, read-out: EGF-R IC50): > 100 µM
Nc1nc(Nc2ccc(S(N)(=O)=O)cc2)nn1C(=S)Nc1c(F)cccc1F [Cpd 66, 5-amino-3-[[4-(aminosulfonyl)phenyl]amino]-N-(2,6-difluorophenyl)-1H-1,2,4-triazole-1-carbothioamide] | 35 nM |  | 92 nM | 20 nM |  |  | 
Cc1ccc(F)c(C(=O)n2nc(Nc3ccc(S(N)(=O)=O)cc3)nc2N)c1Cl [Cpd 69, 4-[[5-amino-1-(2-chloro-6-fluoro-3-methylbenzoyl)-1H-1,2,4-triazol-3-yl]amino]-benzenesulfonamide] |  | 8 nM |  |  | 0.139 µM | > 100 µM | IC50 [5]: 0.685 µM
Cc1ccsc1C(=O)n1nc(Nc2ccc(-n3cncn3)cc2)nc1N [Cpd 99, 1-[(3-methyl-2-thienyl)carbonyl]-N^3-[4-(1H-1,2,4-triazol-1-yl)phenyl]-1H-1,2,4-triazole-3,5-diamine] |  |  |  |  | 0.095 µM | > 100 µM | IC50 (PKC (protein kinase-C)): > 100 µM; IC50 (CDK1:Cyclin-B): 0.366 µM
Cc1cc(C)c(C(=O)n2nc(Nc3ccc(NS(C)(=O)=O)cc3)nc2N)s1 [Cpd 108, N-[4-[[5-amino-1-[(3,5-dimethyl-2-thienyl)carbonyl]-1H-1,2,4-triazol-3-yl]amino]phenyl]-methanesulfonamide] | 221 nM |  | 259 nM | 76 nM |  | > 100 µM | IC50 (Insulin Receptor Kinase): 0.81 µM
CCc1ccc(C(=O)n2nc(Nc3ccc(S(=O)(=O)Nc4ccccn4)cc3)nc2N)s1 [Cpd 119, 4-[[5-amino-1-[(5-ethyl-2-thienyl)carbonyl]-1H-1,2,4-triazol-3-yl]amino]-N-(2-pyridinyl)-benzenesulfonamide] | 146 nM |  | 199 nM | 117 nM |  |  | IC50 (PKC (protein kinase-C)): > 100 µM; IC50 [5]: 0.057 µM; IC50 (CDK1:Cyclin-B): 0.067 µM
Nc1nc(Nc2cccc(Cl)c2)n(C(=O)c2c(F)cccc2F)n1 [Cpd 126, N^5-(3-chlorophenyl)-1-(2,6-difluorobenzoyl)-1H-1,2,4-triazole-3,5-diamine] |  |  |  |  |  |  | IC50 [6]: > 100 µM
Nc1nc(Nc2cccc(Cl)c2)n(C(=O)c2ccccc2)n1 [Cpd 127, 1-benzoyl-N^5-(3-chlorophenyl)-1H-1,2,4-triazole-3,5-diamine] |  |  |  |  |  |  | IC50 [6]: > 100 µM
Nc1nc(Nc2ccc(S(N)(=O)=O)cc2)n(C(=S)Nc2c(F)cccc2F)n1 [Cpd 128, 3-amino-5-[[4-(aminosulfonyl)phenyl]amino]-N-(2,6-difluorophenyl)-1H-1,2,4-triazole-1-carbothioamide] | 128 nM |  | 968 nM | 910 nM | 0.11 µM | > 100 µM | 
